pIC50: −log10 of the molar value. Activity calls are given as the source filed them. No cut-off for these calls is given here.
Assays:
K562 [1] = assay: Anticancer activity against human K562 cells assessed as cell growth at 10^-5 M incubated for 48 hrs by SRB assay relative to control; format: functional; conditions: K562, 48 h, dose 1 10^-5M, read-out: Activity
NCI-H460 [2] = assay: Anticancer activity against human NCI-H460 cells assessed as cell growth at 10^-5 M incubated for 48 hrs by SRB assay relative to control; format: functional; conditions: NCI-H460, 48 h, dose 1 10^-5M, read-out: Activity
LOX IMVI [3] = assay: Anticancer activity against human LOX IMVI cells assessed as cell growth at 10^-5 M incubated for 48 hrs by SRB assay relative to control; format: functional; conditions: dose 1 10^-5M, read-out: Activity
M14 [4] = assay: Anticancer activity against human M14 cells assessed as cell growth at 10^-5 M incubated for 48 hrs by SRB assay relative to control; format: functional; conditions: M14, 48 h, dose 1 10^-5M, read-out: Activity
UACC-62 [5] = assay: Anticancer activity against human UACC-62 cells assessed as cell growth at 10^-5 M incubated for 48 hrs by SRB assay relative to control; format: functional; conditions: UACC-62, 48 h, dose 1 10^-5M, read-out: Activity
CAKI-1 [6] = assay: Anticancer activity against human CAKI-1 cells assessed as cell growth at 10^-5 M incubated for 48 hrs by SRB assay relative to control; format: functional; conditions: CAKI-1, 48 h, dose 1 10^-5M, read-out: Activity
SF-295 = assay: Anticancer activity against human SF-295 cells assessed as cell growth at 10^-5 M incubated for 48 hrs by SRB assay relative to control; format: functional; conditions: SF-295, 48 h, dose 1 10^-5M, read-out: Activity
SK-MEL-5 = assay: Anticancer activity against human SK-MEL-5 cells assessed as cell growth at 10^-5 M incubated for 48 hrs by SRB assay relative to control; format: functional; conditions: SK-MEL-5, 48 h, dose 1 10^-5M, read-out: Activity
HCC 2998 = assay: Anticancer activity against human HCC 2998 cells assessed as cell growth at 10^-5 M incubated for 48 hrs by SRB assay relative to control; format: functional; conditions: HCC 2998, 48 h, dose 1 10^-5M, read-out: Activity
K562 [7] = assay: Antiproliferative activity against human K562 cells assessed as inhibition of cell proliferation measured after 72 hrs by MTT assay; format: functional, cell-based; conditions: K562, 72 h
[8] = Antiproliferative activity against human HaCaT cells assessed as inhibition of cell proliferation measured after 72 hrs by MTT assay; format: toxicity, cell-based
[9] = Antiproliferative activity against NIH3T3 cells assessed as inhibition of cell proliferation measured after 72 hrs by MTT assay; format: toxicity, cell-based; conditions: mouse
[10] = Antiproliferative activity against J774.2 cells assessed as inhibition of cell proliferation measured after 72 hrs by MTT assay; format: toxicity, cell-based; conditions: mouse
[11] = Selectivity index, ratio of IC50 for […] to IC50 for human K562 cells; format: functional
K562 [12] = assay: Inhibition of cell growth in human K562 cells incubated for 48 hrs by SRB assay; format: functional, cell-based; conditions: K562, 48 h
HCT-15 = assay: Inhibition of cell growth in human HCT-15 cells incubated for 48 hrs by SRB assay; format: functional, cell-based; conditions: HCT-15, 48 h
SW-620 = assay: Inhibition of cell growth in human SW-620 cells incubated for 48 hrs by SRB assay; format: functional, cell-based; conditions: SW-620, 48 h
M14 [13] = assay: Inhibition of cell growth in human M14 cells incubated for 48 hrs by SRB assay; format: functional, cell-based; conditions: M14, 48 h
UACC-62 [14] = assay: Inhibition of cell growth in human UACC-62 cells incubated for 48 hrs by SRB assay; format: functional, cell-based; conditions: UACC-62, 48 h
MCF7 = assay: Anticancer activity against human MCF7 cells assessed as cell growth at 10^-5 M incubated for 48 hrs by SRB assay relative to control; format: functional; conditions: MCF7, 48 h, dose 1 10^-5M, read-out: Activity
NCI-H522 = assay: Anticancer activity against human NCI-H522 cells assessed as cell growth at 10^-5 M incubated for 48 hrs by SRB assay relative to control; format: functional; conditions: NCI-H522, 48 h, dose 1 10^-5M, read-out: Activity
UACC-257 = assay: Anticancer activity against human UACC-257 cells assessed as cell growth at 10^-5 M incubated for 48 hrs by SRB assay relative to control; format: functional; conditions: UACC-257, 48 h, dose 1 10^-5M, read-out: Activity
T47D [15] = assay: Anticancer activity against human T47D cells assessed as cell growth at 10^-5 M incubated for 48 hrs by SRB assay relative to control; format: functional; conditions: dose 1 10^-5M, read-out: Activity
NCI-H460 [16] = assay: Inhibition of cell growth in human NCI-H460 cells incubated for 48 hrs by SRB assay; format: functional, cell-based; conditions: NCI-H460, 48 h
KM12 = assay: Inhibition of cell growth in human KM12 cells incubated for 48 hrs by SRB assay; format: functional, cell-based; conditions: KM12, 48 h
LOX IMVI [17] = assay: Inhibition of cell growth in human LOX IMVI cells incubated for 48 hrs by SRB assay; format: functional, cell-based
CAKI-1 [18] = assay: Inhibition of cell growth in human CAKI-1 cells incubated for 48 hrs by SRB assay; format: functional, cell-based; conditions: CAKI-1, 48 h
T47D [19] = assay: Inhibition of cell growth in human T47D cells incubated for 48 hrs by SRB assay; format: functional, cell-based
K562 [20] = assay: Induction of DNA damage in human K562 cells assessed as tail DNA level at 70 nM incubated for 24 hrs by comet assay (reference value: 0.5 to 0.6 %); format: functional
K562 [21] = assay: Induction of DNA damage in human K562 cells assessed as tail DNA level at 700 nM incubated for 24 hrs by comet assay (reference value: 0.5 to 0.6 %); format: functional
K562 [22] = assay: Induction of DNA damage in human K562 cells assessed as olive tail moment level at 70 nM incubated for 24 hrs by comet assay (reference value: 0.2); format: functional
K562 [23] = assay: Induction of DNA damage in human K562 cells assessed as olive tail moment level at 700 nM incubated for 24 hrs by comet assay (reference value: 0.2); format: functional
K562 [24] = assay: Induction of DNA damage in human K562 cells assessed as fold increase in tail DNA level at 70 to 700 nM incubated for 24 hrs by comet assay relative to control; format: functional; conditions: dose 70-700 nM
K562 [25] = assay: Induction of DNA damage in human K562 cells assessed as fold increase in olive tail moment at 70 to 700 nM incubated for 24 hrs by comet assay relative to control; format: functional; conditions: dose 70-700 nM
K562 [26] = assay: Induction of pro-apoptotic morphological changes in human K562 cells assessed as cell shrinkage at 700 nM incubated for 24 hrs by Hoescht-33342 staining based analysis; format: functional
K562 [27] = assay: Induction of pro-apoptotic morphological changes in human K562 cells assessed as nucleus fragmentation at 700 nM incubated for 24 hrs by Hoescht-33342 staining based analysis; format: functional, cell-based
K562 [28] = assay: Induction of pro-apoptotic morphological changes in human K562 cells assessed as formation of cytoplasmic blebs at 700 nM incubated for 24 hrs by Hoescht-33342 staining based analysis; format: functional, cell-based
K562 [29] = assay: Induction of pro-apoptotic morphological changes in human K562 cells assessed as formation of apoptotic bodies at 700 nM incubated for 24 hrs by Hoescht-33342 staining based analysis; format: functional, cell-based
K562 [30] = assay: Induction of pro-apoptotic morphological changes in human K562 cells at 70 nM incubated for 24 hrs by Hoescht-33342 staining based analysis; format: functional, cell-based

Row | Compound | growth at 10 µM (K562 [1]) | growth at 10 µM (NCI-H460 [2]) | growth at 10 µM (LOX IMVI [3]) | growth at 10 µM (M14 [4]) | growth at 10 µM (UACC-62 [5]) | growth at 10 µM (SF-295) | growth at 10 µM (SK-MEL-5) | pIC50 (K562 [7]) | IC50 at 72 h [8] | IC50 at 72 h [9] | IC50 at 72 h [10] | Ratio IC50 [11] | pIC50 (K562 [12]) | pIC50 (HCT-15) | pIC50 (SW-620) | pIC50 (M14 [13]) | pIC50 (UACC-62 [14]) | further results
1 | O=C(Nc1ncc(Cc2cc(Cl)ccc2Cl)s1)c1ccc(-n2cnnn2)cc1 | 22.8% | 33% | 22.6% | 24.6% | 8.26% | 30.9% | 22.4% | 5.12 | > 100000 nM | > 100000 nM | 34700 nM | 4.6 | 6.24 | 6.05 | 6.29 | 6.16 | 6.44 | growth at 10 µM (CAKI-1 [6]): 29%; growth at 10 µM (HCC 2998): 22.7%
2 | O=C(Nc1ncc(Cc2ccc(F)cc2)s1)c1ccc(-n2cnnn2)cc1 | 23.2% | 25.5% | 26.3% | 34.3% | 19.2% | 25.9% | 10.6% | 6.15 | > 100000 nM | > 100000 nM | 70700 nM | 101 | 7.25 | 6.46 | 6.93 | 6.58 | 7.24 | growth at 10 µM (MCF7): 34.4%; growth at 10 µM (NCI-H522): 36.5%; growth at 10 µM (UACC-257): 32%; growth at 10 µM (T47D [15]): 23.2%; pIC50 (NCI-H460 [16]): 6.00; pIC50 (KM12): 6.03; pIC50 (LOX IMVI [17]): 6.69; pIC50 (CAKI-1 [18]): 6.11; pIC50 (T47D [19]): 6.05; Activity (K562 [20]): 1.1%; Activity (K562 [21]): 5.1%; Activity (K562 [22]): 0.5; Activity (K562 [23]): 1.4; fold change (FC) (K562 [24]): 2; fold change (FC) (K562 [25]): 2; Activity (K562 [26]): Active; Activity (K562 [27]): Active; Activity (K562 [28]): Active; Activity (K562 [29]): Active; Activity (K562 [30]): inactive

— ChEMBL document CHEMBL5335775, “Bioisosteric replacement of 1H-1,2,3-triazole with 1H-tetrazole ring enhances anti-leukemic activity of (5-benzylthiazol-2-yl)benzamides” (Eur J Med Chem, 2023)
